Measured values taken from US11802107B2, “Compounds and methods of use” (Signum Biosciences, Inc., priority 2017, dated 2023).
In brackets after ≈: the same amount, converted by molar mass.

Columns and labels:
P. acnes (ATCC 6919) [1] = assay: Minimal inhibitory concentration (MIC) against P. acnes; format: cell-based, Propionibacterium acnes; conditions: Cutibacterium acnes, ATCC6919, 72 h, P. acnes ATCC 6919, 10^6 CFU/mL, read-out: MIC
Method: To determine minimal inhibitory concentration (MIC), reagents were dissolved in vehicle (5% v/v) and then added to bacteria suspension. P. acnes (ATCC® 6919TM) at 10^6 CFU/mL was incubated with test materials at the concentrations of two-fold serial dilution (0.25-500 μg/mL) and incubated for 72 hours (P. acnes).

P. acnes (ATCC 6919) [2] = assay: Minimal bactericidal concentration (MBC) against P. acnes; format: cell-based, Propionibacterium acnes; conditions: Cutibacterium acnes, ATCC6919; P. acnes 10^7 CFU/mL, in PBS, anaerobic conditions
[3] = system: P. acnes (ATCC 6919) biofilms; assay: P. acnes biofilm eradication (MBEC), crystal violet; format: cell-based, Propionibacterium acnes; conditions: 24 hours, ≥80% eradication vs vehicle
Method: P. acnes (ATCC® 6919™) was cultured as described above. Bacteria biofilms were established by seeding P. acnes cultures in 96-well plates and incubating for 24 hours without agitation. Later, biofilms were incubated with test materials for 24 hours. Remaining biofilms were washed and stained with crystal violet. […] The absorbance was measured at 595 nm in a microplate reader. […] Results from disk diffusion susceptibility testing (Kirby-Bauer Method) after 72 hours incubation were also obtained.

DEFB4B (hBD2) = assay: NHEK antimicrobial peptide gene expression, hBD2; format: cell-based, human; conditions: 10 μM, 24 hours, qPCR, normalized to GAPDH
Method: (§1) Normal human epidermal keratinocytes (NHEKs) from neonatal donors were obtained from Thermo-Fisher (Cat No. C-001-5C). Cells were cultured in 6-well plates for 24 hours before treatments with EpiLife media (Cat No. MEPI500CA) supplemented with keratinocytes growth supplement (Cat No. 50015). On Day 2, media was removed and incubated with test materials (10 μM) for 24 hours at 37° C. and 5% CO2. On Day 3, total RNA was extracted from cells using the RNAqueous® kit (Ambion®; Cat No. 1912) and cDNA was obtained using the High Capacity RNA-to-cDNA kit (Applied Biosystems®; Cat No. 4387406). Quantitative PCR (qPCR) was performed using the TaqMan® Fast Advanced Master Mix (Applied Biosystems®; Cat No. 4444556) and specific TaqMan®-probes human gene primers DEFB4B (hBD2), DEFB103 (hBD3), HCAP18 and GAPDH to calculate the relative gene fold expression change per treatment. Gene expression analysis was performed using the comparative Ct method (also known as the 2-[delta][delta]Ct) approach by comparing the Ct values of the treated samples with the untreated samples and normalized to GAPDH gene expression as endogenous housekeeping gene. Results were represented as fold-expression/untreated cells.

DEFB103 (hBD3) = assay: NHEK antimicrobial peptide gene expression, hBD3; format: cell-based, human; conditions: 10 μM, 24 hours, qPCR, normalized to GAPDH
Method: as §1

HCAP18 = assay: NHEK antimicrobial peptide gene expression, hCAP18; format: cell-based, human; conditions: 10 μM, 24 hours, qPCR, normalized to GAPDH
Method: as §1

IL-8 = assay: P. acnes-induced IL-8 protein on human PBMCs (ELISA); format: cell-based; conditions: PBMCs + live P. acnes 1:1, test material 30 PM, 24 hours
Method: (§2) Cryopreserved human Peripheral Blood Mononuclear cells (PBMCs) from healthy adult donors were obtained from Zen Bio, Inc (Cat No. SER-PBMC-F). Cells were cultured in 12-well plates with lymphocyte media (Cat No. LYMPH-1) and incubated with test materials ([…]) and live P. acnes (ATCC® 6919TM) at 1:1 PBMC: P. acnes bacteria ratio for 24 hours at 37° C. and 5% CO2. After incubation, cell media supernatants were harvested and used to measure pro-inflammatory cytokine levels (IL-8, TNF-α, IL-1b, IL-17) using ELISA kits (BD Biosciences® #557966, #555212, #555244; R&D Systems® #DY317). Total RNA was extracted from cells using the RNAqueous® kit (Ambion®; Cat No. 1912) and cDNA was obtained using the High Capacity RNA-to-cDNA kit (Applied Biosystems®; Cat No. 4387406). Quantitative PCR (qPCR) was performed using the TaqMan® Fast Advanced Master Mix (Applied Biosystems®; Cat No. 4444556) and specific TaqMan®-probes human gene primers CXCL8 (IL-8), IL1B (IL-1b), TNF (TNF-α), IL17A (IL-17A) and GAPDH to calculate the relative gene fold expression change per treatment. Gene expression analysis was performed using the comparative Ct method (also known as the 2-[delta][delta]Ct) approach by comparing the Ct values of P. acnes-only treated cells with the untreated samples and normalized to GAPDH gene expression as endogenous housekeeping gene.

IL-1b = assay: P. acnes-induced IL-1b protein on human PBMCs (ELISA); format: cell-based; conditions: PBMC, PBMCs + live P. acnes 1:1, test material 30 PM, 24 hours
Method: as §2

IL-17 = assay: P. acnes-induced IL-17 protein on human PBMCs (ELISA); format: cell-based; conditions: PBMC, PBMCs + live P. acnes 1:1, test material 30 PM, 24 hours
Method: as §2

TNF-α = assay: P. acnes-induced TNF-α protein on human PBMCs (ELISA); format: cell-based; conditions: PBMCs + live P. acnes 1:1, test material 30 PM, 24 hours
Method: as §2

IL-4 = assay: T-cell receptor (anti-CD3/CD28)-induced IL-4 on PBMCs; format: cell-based; conditions: Homo sapiens, PBMC, anti-CD3/CD28 beads, 24 hours, ELISA, read-out: TCR-PBMCs IL-4 Protein IC50
Method: (§3) Cryopreserved human Peripheral Blood Mononuclear cells (PBMCs) from healthy adult donors were obtained from Zen Bio, Inc (Cat No. SER-PBMC-F). Cells were cultured in 96-well plates with lymphocyte media (Cat No. LYMPH-1) and were pre-treated with test materials (≤100 μM) for 2 hours and later co-treated with test materials and anti-CD3/CD28 beads (Thermo-Fisher; Cat No. 11131D) at 1:0.4 PBMC:bead ratio for 24 hours at 37° C. and 5% CO2. After incubation, cell media supernatants were harvested and used to measure cytokine levels (IL-4, IL-5, IL-10) using ELISA kits (BD Biosciences® #555194, #555157; R&D Systems® #DY317). Results were represented as percent of inhibition relative to untreated and anti-CD3/CD28 beads-only treated cells. IC50 values were determined by non-linear regression analysis using the four-parameter logistic equation.

IL-5 = assay: T-cell receptor (anti-CD3/CD28)-induced IL-5 on PBMCs; format: cell-based; conditions: Homo sapiens, PBMC, anti-CD3/CD28 beads, 24 hours, ELISA, read-out: TCR-PBMCs IL-5 Protein IC50
Method: as §3

IL-10 = assay: T-cell receptor (anti-CD3/CD28)-induced IL-10 on PBMCs; format: cell-based; conditions: Homo sapiens, PBMC, anti-CD3/CD28 beads, 24 hours, ELISA, read-out: TCR-PBMCs IL-10 Protein IC50
Method: as §3

Balb/C mice = assay: Oxazolone-induced delayed-type hypersensitivity (DTH) in vivo model; conditions: Mus musculus, topical to ears @ 3% w/v, 24 hours, read-out: Edema % inhibition
Method: Inbred male Balb/C mice were purchased from Hilltop Lab Animals (Scottdale, PA) and were used between 8 and 10 weeks of age. Mice backs were shaved and 100 μl of 3% v/v Oxazolone (Sigma Aldrich, Cat No. E0753) in acetone/olive oil (4:1) was applied to dorsal skin for sensitization. On Day 7, ears were challenged with 0.5% v/v Oxazolone and 30 minutes after challenge, test materials at 3% w/v were applied to ears (10 μl applied both to the dorsal and ventral surfaces of the mouse ear using a solvent pipette) and 24 hours later, skin thickness (edema) was measured. A 6-mm punch biopsy was obtained from each ear, snap frozen in liquid nitrogen. Ear skin biopsy punches were pulverized using FastPrep®-24 Biopulverizer (MP Biomedical, CatNo. 116004500) and Lysing Matrix A tubes (CatNo. 16910050). Protein extracts were obtained using 500 μL/tissue of cold T-PER buffer (ThermoFisher, CatNo. 78510) with Protease inhibitors (Sigma-Aldich, CatNo. 58820-20TAB). Soluble protein fractions were used to measure cytokine levels (IL-4) using ELISA kit (BD Biosciences® #555232). Results were represented as percent of inhibition relative to unsensitized and sensitized-only treated animals. Vehicle for presently disclosed compounds was 60:40 H2O:EtOH and 1:1 Acetone:EtOH for AN2718. (n=5-15 animals per treatment group).
Compound C was further analyzed at various dosages against 0.4 mg/ear of […] by the above protocol, data representing the average±S.E. of cumulative data from three independent experiments (n=12-15 mice per group) is shown below: […]

Row | MIC (P. acnes (ATCC 6919) [1]) [µg/mL] | IC50 (IL-4) [µM] | IC50 (IL-5) [µM] | IC50 (IL-10) [µM] | SMILES | MBC (P. acnes (ATCC 6919) [2]) [µg/mL] | MBEC [3] | hBD2 gene expression (DEFB4B (hBD2)) | hBD3 gene expression (DEFB103 (hBD3)) | hCAP18 gene expression (HCAP18) | IL-8 Protein % inhibition (IL-8) [%] | inhibition at 30 pM (IL-1b) [%] | inhibition at 30 pM (IL-17) [%] | TNFa-Protein % inhibition (TNF-α) [%] | inhibition in vivo at 3 % strength (Balb/C mice) [%]
1 | 1000 (≈ 5310 µM) |  |  |  | O=C(O)CCCCCCCC(=O)O [Azelaic Acid, reference compound] | > 2000 | 8000 μg/mL and (42503) μM | 1.8 Fold-expression/untreated cells | 0.9 Fold-expression/untreated cells | 1.1 Fold-expression/untreated cells | 43 | 66 | 0 | 0 | 
2 | 24 (≈ 41.9 µM) | 52 | 50 | 46 | CSCCC(NC(C)=O)C(=O)NC(CSC/C=C(\C)CCCC(C)CCCC(C)CCCC(C)C)C(=O)O (centres unmarked) [Compound B] |  |  |  |  |  |  |  |  |  | 48
3 | > 250 | > 100 | > 100 | 100 | C/C(=C\CSCC(NC(=O)CCCCCCCCC(=O)O)C(=O)O)CCCC(C)CCCC(C)CCCC(C)C (centres unmarked) [D] |  |  |  |  |  |  |  |  |  | 53
